Assay results as given in a melting point compilation (Tetko et al.; mined from patent text by program, amines drawn as free bases though some values may be those of a salt).

melting point	Compound
53 to 55 °C	Cc1cc(NC(=O)c2cnccc2C(F)(F)F)on1
127 to 143 °C	CC(C)N1C(=O)CO[C@@H]2c3cc(F)ccc3OCC[C@H]21 (relative stereo)
193 to 194 °C	C#CCn1c2ccc(Br)cc2c2cc(Br)ccc21
146 to 148 °C	CCOc1cc(NC(=O)NS(=O)(=O)c2ccc(C)cc2)ccn1
120 to 132 °C	CSc1nc(Cc2ccccc2[N+](=O)[O-])n[nH]1
178 °C	COc1ccc(Cl)cc1C(=O)NCCc1ccc(Sc2ccccc2)c(S(N)(=O)=O)c1
55 to 58 °C	CC(n1ncnn1)C(O)(c1ccc(OC(F)(F)F)cc1)c1ccc(OC(F)(F)F)cc1 (centres undefined)
74 to 76 °C	CCc1cn(C(C)C(=O)N(C)C)nc1-c1ccccc1Cl (centres undefined)
86 to 88 °C	CCOC(=O)c1cc(Cl)c(Cl)c(-c2cc(C)no2)c1C
213 to 215 °C	Cc1c(N2CCC(C(N)c3cccnc3)C2)c(F)c(N)c2c(=O)c(C(=O)O)cn(C3CC3F)c12 (centres undefined)
105 to 107 °C	CCCN(CCC)S(=O)(=O)c1cccc(C(=O)Nc2cccc(Br)c2)c1
182 to 187 °C	CC(C)=NN=C1NCC(=O)N1
135 to 138 °C	Fc1ccc2nc(Cl)c3nnc(C(F)(F)F)n3c2c1
169 to 170 °C	COC1CN(C(=O)c2cc(-c3ccccc3)c(=O)n3nc(C)c4ccsc4c23)C1
250 to 252 °C	Cc1ccccc1C(=O)Nc1ccc(C(=O)N2CCCC(NC(=O)Cn3ccnc3)c3ccccc32)cc1 (centres undefined)
135 to 136 °C	CN(NC(=O)c1c(F)cccc1Cl)S(C)(=O)=O
170 to 171 °C	O=C(O)COC1=C(Cc2ccc3ccccc3c2)C(=O)CCC1
239 to 241 °C	CC(C)(C)C(=O)c1c[nH]c2ncc(-c3cccc(N)c3)nc12
121 to 122 °C	CCCc1nc(OC)c(NC(=O)N2CCN(c3cc(OC)cc(OC)c3)CC2)cc1C
223 to 225 °C	NC(=O)N1C[C@@H](O)[C@H](Oc2ccc(Cl)cc2)C1 (relative stereo)
193 to 195 °C	Cc1cc(Nc2nccc(N3CCC(C)CC3)n2)[nH]n1
105 °C	CC1(C(O)(Cc2ccccc2Cl)Cn2cncn2)CCCCC1 (centres undefined)
194 to 196 °C	COc1ccc(-c2cc(Cl)cc3c2OC(C(F)(F)F)C(C(=O)O)=C3)cc1 (centres undefined)
170 to 171 °C	Cc1c(C)c2c(c(C)c1NC(=O)CC(C)(C)C)C(O)(C1CCCCC1)C(C)(C)O2 (centres undefined)

melting point	Compound
220 °C	Cc1cc(Nc2ccc(F)cc2)nc(Nc2ccc(S(=O)(=O)N(C)C3CCN(Cc4nccs4)CC3)cc2)n1
111 to 113 °C	NC(=O)N(O)Cc1sccc1Sc1ccc(Cl)cc1
87 to 88 °C	CC(C)NCCNc1ccc2ncc(Br)n2n1
281 to 286 °C	O=C(Nc1ccc(Cl)cc1)c1c(O)c2cccnc2n(-c2ccccc2)c1=O
40 to 44 °C	COc1ccc2cc([C@H](C)C(=O)NOCC(=O)NCCO[N+](=O)[O-])ccc2c1
122 to 124 °C	O=S(=O)(Nc1cc(F)c(Cl)cc1I)c1ccccc1
237 to 239 °C	COc1cc(Cl)ccc1C(=O)Nc1ccc(C(=O)N2Cc3ccccc3Cc3ccccc32)cc1
196 to 199 °C	COc1ccc2c(c1Br)CCC1C(=O)N(C)C(=O)C21 (centres undefined)
108 to 109 °C	CC(=O)OCOC(c1ccccc1)n1cc(F)c(=O)[nH]c1=O (centres undefined)
200 to 202 °C	COCCN(C)Cc1c(-c2ccc(N)cc2)sc2c1c(=O)n(-c1ccc3c(c1)OCO3)c(=O)n2Cc1c(F)cccc1F
120 to 122 °C	COc1ccc(CNC(=O)c2[nH]c(C)c(-c3nc4ccc(C(=O)c5ccccc5)cc4[nH]3)c2C)cc1OC
243 to 244 °C	CCc1nc2c(C)cc(C)nc2n1Cc1ccc(C2(C(=O)O)Cc3ccccc3C2)s1
202 to 204 °C	COc1ccc2c(c1)sc1ncc(CO)n12
203 to 204 °C	Cc1cc(C(=O)Nc2ccc(S(=O)(=O)C(F)(F)F)cc2Cl)c(O)c(C23CC4CC(CC(C4)C2)C3)c1
156 to 157 °C	CN(C)c1cccc([N+](=O)[O-])c1CC=NNC(N)=O
122 °C	CCOC(=O)CN1CCN(c2ccccc2[N+](=O)[O-])CC1
280 to 281 °C	Oc1cc(-c2ccccc2)nc2nn(-c3ccccc3)cc12
194 to 196 °C	Cc1cc(-c2cccc(Cl)c2)nn2c(C)nnc12
201 to 203 °C	CON(CCCCn1c(C)nc2c(N)nc3ccccc3c21)S(C)(=O)=O
231 to 237 °C	CN1CCN(c2cc3c(cc2F)c(=O)c(C(=O)O)cn3C2CSC2)CC1
188 to 189 °C	CCCCCOCCOc1ccc(-c2ccc3c(c2)C=C(C(=O)Nc2ccc(CN(C)C4CCOCC4)cc2)CCS3(=O)=O)cc1
107 to 109 °C	COC(=S)c1c[nH]c(-c2ccccc2)c1
167 to 169 °C	COc1ccc(-c2cc(C(F)F)nn2-c2ccc(S(N)(=O)=O)c(F)c2)cc1F
115 to 119 °C	COc1ccc(C2(C)Cc3cc(OCc4ccccc4)c(Cl)c(Cl)c3C2=O)cc1 (centres undefined)

melting point	Compound
161 °C	Cc1ccc(C)c(OCCCC(C)(C)C(=O)Nc2cccc(C(=O)O)c2)c1
221 °C	COc1ccc2c(c1)C(=O)c1nc(-c3ccccc3)sc1C2=O
133 to 136 °C	COc1ccc2cc(N)ccc2c1
205 to 210 °C	O=C1CCC(=O)N1[C@H]1CC[C@H](Nc2nccc(-n3nnc4ccccc43)n2)CC1
120 to 122 °C	COc1cccc(NC(=O)c2cccc([N+](=O)[O-])c2)c1
101 to 104 °C	CCc1ccc(NC(=O)Nc2cc(C(C)(C)C)sc2C(=O)NC)cc1
78.5 to 81.5 °C	CCOC(=O)c1ncn(S(=O)(=O)N(C)C)n1
171 to 173 °C	Cc1csc(Nc2nc(C(C)(C)C)c(O)c(C(C)(C)C)n2)n1
216 °C	CN1CCN=C1C(C#N)=NO
68 to 71 °C	CCN(CC)c1c(OC)cccc1C(=O)O
124 to 125 °C	CCOC(=O)/C=C/c1cc(OCc2ccccc2)ccc1OCC
121 to 128 °C	COC(=O)COc1ccc(OC/C=C(/c2ccc(I)cc2)c2ccc3oc(C)cc3c2)cc1C
185 to 186 °C	CC1(N)CN(c2c(F)cc3c(=O)c(C(=O)O)cn(-c4ccc(F)cc4F)c3c2F)C1
214 to 217 °C	COc1ccnc(NC(N)=S)c1
207 to 209 °C	C#CC1(CO)C=CC(n2cc(C)c(=O)[nH]c2=O)O1 (centres undefined)
90 to 93 °C	Cc1ccc(C(=O)OC2CCN(Cc3cccc([N+](=O)[O-])c3)CC2)cc1
169 to 171 °C	COc1cc(CC2COC(c3ccc(O)c(OC)c3)C2CO)ccc1O (centres undefined)
149 to 150 °C	CON=C1c2ccccc2-c2c(N3CCNCC3)nc3ccccc3c21
146 to 150 °C	CC(C)c1cccc(C(C)C)c1NC(=O)NCC1(c2ccc3ccccc3c2)CCC1
205 to 206 °C	Cn1cc(-c2cc3cccnc3[nH]2)c2cc(C(=O)NC(CO)(CO)CO)ccc21
86 °C	Cc1cc(-n2cncn2)c2cccc(OCc3c(Cl)ccc(S(=O)(=O)N4CCC[C@H]4C(=O)NCCCN4CCCC4)c3Cl)c2n1
> 275 °C	CCOC(=O)CCc1ccc2[nH]c(-c3cccnc3)c(C)c2c1
114 to 115 °C	CCOc1nn(Cc2ccc(OCc3csc(-c4ccccc4)n3)cc2)cc1CCC(=O)O
89 °C	COC(=O)c1c(C)nc2ccccc2c1NCc1ccc(Br)cc1

melting point	Compound
135 °C	CCOC(=O)c1cnc2cc(F)c(F)cc2c1
303 to 305 °C	CC1CCc2c(-n3cccc3)ccc3c(=O)c(C(=O)O)cn1c23 (centres undefined)
141 to 143 °C	COc1cc(OC)c(-c2cccs2)cc1/C=C/C(=O)c1ccc(S(=O)(=O)Nc2ccccn2)cc1
129 to 130 °C	CCn1cnc2c(Nc3cccc(C(F)(F)F)c3)nc(Cl)nc21
135 to 137 °C	COC(=O)Nc1ccccc1C=Cc1ccccc1Cl
125 to 127 °C	CCN(CC)c1ccc(Cn2nc(-c3ccccc3O)nc2-c2ccccc2O)cc1
80.2 °C	COC(=O)CC(c1ccc(F)cc1)C(C#N)C(=O)OC (centres undefined)
218 to 220 °C	COc1ccc(-c2c(NC(=O)Nc3ccc(F)cc3F)cnc3ccc(Cl)cc23)c(O)c1OC
220 to 222 °C	COc1cc(S(=O)(=O)c2ccncc2)ccc1NC(=O)C(C)(O)C(F)(F)F (centres undefined)
221 °C	OC1CSC(Oc2cncc(-c3ccc(F)cc3F)c2)C(O)C1O (centres undefined)
274 to 276 °C	CC(=O)Nc1ccc(-c2ccc3c(c2)CC(C(=O)O)O3)cc1 (centres undefined)
133 to 134 °C	c1ccc(-c2cc(N3CCNCC3)nc3ccccc23)cc1
155 °C	COc1ccc(CNC(=O)c2ccc3ccccc3c2Br)cc1
220 to 221 °C	Cc1nn2c(-c3ccncc3)ccnc2c1C#N
168 to 171 °C	COc1cc2nc(NC3CCC(N(C)C)CC3)c(-c3ccccn3)nc2cc1OC (centres undefined)
166 to 168 °C	COc1ccccc1Sc1ccc2c(c1)CCC1N(C)C(=O)CCC21C (single isomer, unassigned; (+))
194 to 195 °C	CC(=O)Nc1cc(C(C)(C)C)[nH]n1
94 to 95 °C	COC(=O)CC(CNC(C)=O)c1cccc2ccc(OC)cc12 (centres undefined)
166 to 168 °C	CC(C)c1ccc2c(c1)c(SC1CCCCC1)c(CC(C)(C)C(=O)O)n2Cc1ccc(Cl)cc1
143 to 144 °C	CCCCCCCCC(CCCCCCCC)N1C(=O)c2ccc3c4cccc5cccc(c6ccc(c2c36)C1=O)c54
265 to 266 °C	NC(=O)c1cc(C(=O)O)c2c(c1)C(C(=O)O)CCN2 (centres undefined)
117 to 119 °C	Cc1nc(-n2cc(-c3cccnc3)nn2)sc1C(=O)NCc1ccccc1
94 to 95 °C	O=C(O)CCCCCc1nn(Cc2ccccc2)c2c1CCC2

Compound	melting point
Cc1ccc2c(c1)oc1c(C(=O)NN3CCCC3)nn(-c3ccc(Cl)cc3Cl)c12	90 to 92 °C
C=C(c1cn(-c2c(Cl)cc(C(F)(F)F)cc2Cl)nc1C#N)C(F)(F)C(F)(F)C(F)(F)F	109 to 110 °C
OC1(C#Cc2ccc(OCCOc3ccccc3)cc2)CN2CCC1CC2 (centres undefined)	207 to 208 °C
CCCCNC(=O)OC1c2ccccc2C(=O)N1c1ccc2ccc(Cl)nc2n1 (centres undefined)	152 °C
